From patent US20110178050A1, “USE OF CYCLOLIGNANS FOR THE TREATMENT OF A HYPERACTIVE IMMUNE SYSTEM” (Axelar AB, priority 2008, published 2011)
Values joined by “and” are separate entries in the source; they are usually repeats but may differ in a detail not shown here. Equal entries are not always repeated.

Tests used:
cytotoxic T lymphocytes = experiment: Activation of cytotoxic T lymphocytes in human blood (FACS, CD8/CD69); type: cell-based; settings: for CD8, percent cytotoxic T cells of total cells (events) / CD8/CD69, percent activated cytotoxic T cells of total cytotoxic T cells: 30 min; for Effect on number of activated cytotoxic T lymphocytes (CD8/CD69), in words: 0.1 and 2.5 microM
Method: (§1) The effects of picropodophyllin and deoxypicropodophyllin on the activation of subgroups of lymphocytes in human blood were determined by flow cytometry (FACS). Lymphocytes from human peripheral blood were purified by ficoll-hypaque (Pharmacia, Amersham) and then distributed in FACS tubes at 500,000 cells in 0.5 mL per tube. Cells were kept in RPMI medium (Life technologies) supplemented with 10% bovine serum […] (BGS; Sigma), 1% penicillin-streptomycin (Sigma) and 1% glutamine (Sigma). The cells were incubated for 30 min at room temperature in the absence (control lymphocytes) or presence of picropodophyllin and deoxypicropodophyllin at 0.1 and 2.5 microM concentrations. After washing, the cells were stained 15 min for the surface molecules CD4, CD8 and CD69. CD4 and CD8 are expressed by two subsets of T lymphocytes, i.e. helper T cells and cytotoxic T cells, respectively, and CD69 is a lymphocyte activation marker. The staining was performed with the following fluorophore conjugated antibodies: anti-CD4PB; anti-CD8APC; anti-CD69APCCy7 (Beckton Dickinson). The cells were then washed with PBS containing 2% FCS and 0.05% NaN3 (FACS buffer) and then stained with […] (PI)/FITC Annexin V (Beckton Dickinson) to determine apoptosis of cells, and after incubation for another 15 min and washing, the cells were analysed by flow cytometry (FACSCalibur; Beckton Dickinson). Data were evaluated using the Cellquest computer software (Beckton Dickinson).

helper T lymphocytes = experiment: Activation of helper T lymphocytes in human blood (FACS, CD4/CD69); type: cell-based; settings: 30 min
Method: as §1

human T lymphocytes = experiment: 3H-thymidine incorporation, Concanavalin A stimulated proliferation of lymphocytes from patients; type: cell-based; settings: for 3H-thymidine in cyclolignan-treated lymphocytes (% of 3H-thymidine in control lymphocytes): 2.5 microM, Con A three days, 18 h incorporation; for Proliferation of peripheral blood T lymphocytes, in words: lymphocytes of patients with autoimmune diseases
Method: The effects of picropodophyllin and deoxypicropodophyllin on human T lymphocyte function, i.e. the proliferation capacity of human T lymphocytes in response to an antigen/mitogen, were measured using a time course tritium labelled thymidine incorporation assay. Lymphocytes from peripheral blood of patients were purified by ficoll-hypaque (Pharmacia, Amersham) and were distributed in 96 well plates at 100,000 cells per well, and all samples were in triplicates. Cells were kept in RPMI 1640 medium (Life technologies) supplemented with 10% human serum (Sigma), 100 units/mL penicillin (Sigma), 100 microg/mL streptomycin (Sigma) and 2 mM L-glutamine (Sigma). Proliferation of lymphocytes was stimulated with the T lymphocyte mitogen Concanavalin A (Con A) 10 microg/mL (Sigma). After three days incubation with Con A, with and without the cyclolignans, 1 microCi ^3H-thymidine (Amersham) was added to each well, and after another eighteen hours cells were harvested and washed, and the amount of ^3H-thymidine incorporated into newly synthesized DNA determined by scintillation counting.

mice = experiment: Systemic toxicity of trans and cis isomers of cyclolignans in mice; settings: nude mice; for Survival (in words) / Toxic signs (in words): 28 mg/kg/d intraperitoneally daily for 5 days; for No. of surviving mice/No. of treated mice: 28 mg/kg/d intraperitoneally daily
Method: The experiment was carried out to determine the significance of the stereochemistry of cyclolignans for their general toxicity by investigating systemic toxic effects of trans and cis isomers of cyclolignans in mice. Five-week old pathogen-free nude mice (nu/nu) were used and housed within plastic isolators in a sterile facility. Experimental treatments with podophyllotoxin, deoxypodophyllotoxin, picropodophyllin and deoxypicropodophyllin were performed by injecting each compound dissolved in 10 microL of a mixture of DMSO and saline intraperitoneally daily for 5 days. The dose injected once daily was 28 mg/kg/d and 6 mice were used for each drug. Control mice were treated with the vehicle only.
The mice were checked daily for signs of discomfort, diseases and weight loss.

[1] = tested on: lymphocytes from human peripheral blood; experiment: Apoptosis of human blood lymphocytes (PI/Annexin V, FACS); type: cell-based; settings: 30 min
Method: as §1

blood lymphocytes [2] = experiment: Effect of seven-day treatment on blood lymphocytes in mice; type: in vivo; settings: 20 mg/kg/12 h intraperitoneally, 7 days
Method: In this experiment, healthy 20-gram mice were treated with picropodophyllin by intraperitoneal injections twice daily, the dose being 20 mg/kg/12 h using DMSO/sunflower oil, 9:1, as vehicle. The control group was treated with the vehicle only (totally per day: 20 μL DMSO/oil). Each group included 3 mice. After treatment for 7 days, the mice were sacrificed and blood samples were taken. The number of blood cells in the samples was counted using an Advia 120 Hematology system from Bayer AB (Diagnostica).

blood lymphocytes [3] = experiment: Effect of two-week treatment on blood lymphocytes in rats; type: in vivo, rats (Sprague-Dawley); settings: 20 mg/kg/12 h intraperitoneally, 14 days
Method: In this experiment, healthy 200-grams rats (Sprague-Dawley) were treated with picropodophyllin by intraperitoneal injections twice daily, the dose being 20 mg/kg/12 h, using DMSO/sunflower oil, 9:1, as vehicle. The control group was treated with the vehicle only (totally per day: 200 μL DMSO). Each group included 5 rats. After treatment for 14 days, the rats were sacrificed and blood samples were taken. The number of blood cells in the samples was counted using an Advia 120 Hematology system from Bayer AB (Diagnostica).

[4] = MS (multiple sclerosis) patients
[5] = RA (rheumatoid arthritis) patients
[6] = UC (ulcerative colitis) patients

| Compound | CD8, percent cytotoxic T cells of total cells (events) (cytotoxic T lymphocytes; 0.1 μM) [%] | CD8/CD69, percent activated cytotoxic T cells of total cytotoxic T cells (cytotoxic T lymphocytes; 0.1 μM) [%] | CD8, percent cytotoxic T cells of total cells (events) (cytotoxic T lymphocytes; 2.5 μM) [%] | CD8/CD69, percent activated cytotoxic T cells of total cytotoxic T cells (cytotoxic T lymphocytes; 2.5 μM) [%] | Effect on number of activated cytotoxic T lymphocytes (CD8/CD69), in words (cytotoxic T lymphocytes) | CD4, percent helper T cells of total cells (events) (helper T lymphocytes; 0.1 μM) [%] | CD4/CD69, percent activated helper T cells of total helper T cells (helper T lymphocytes; 0.1 μM) [%] | CD4, percent helper T cells of total cells (events) (helper T lymphocytes; 2.5 μM) [%] | CD4/CD69, percent activated helper T cells of total helper T cells (helper T lymphocytes; 2.5 μM) [%] | 3H-thymidine in cyclolignan-treated lymphocytes (% of 3H-thymidine in control lymphocytes) (human T lymphocytes; CD (Crohn's disease) patients) [%] | 3H-thymidine in cyclolignan-treated lymphocytes (% of 3H-thymidine in control lymphocytes) (human T lymphocytes; [4]) [%] | 3H-thymidine in cyclolignan-treated lymphocytes (% of 3H-thymidine in control lymphocytes) (human T lymphocytes; [5]) [%] | 3H-thymidine in cyclolignan-treated lymphocytes (% of 3H-thymidine in control lymphocytes) (human T lymphocytes; [6]) [%] | Survival (in words) (mice) | Toxic signs (in words) (mice) | No. of surviving mice/No. of treated mice (mice; Day 1) | No. of surviving mice/No. of treated mice (mice; Day 2) | No. of surviving mice/No. of treated mice (mice; Day 3) | No. of surviving mice/No. of treated mice (mice; Day 4) | No. of surviving mice/No. of treated mice (mice; Day 5) | further results |
| --- | --- | --- | --- | --- | --- | --- | --- | --- | --- | --- | --- | --- | --- | --- | --- | --- | --- | --- | --- | --- | --- |
| COc1cc([C@@H]2c3cc4c(cc3C[C@H]3COC(=O)[C@H]32)OCO4)cc(OC)c1OC [Deoxypicropodophyllin] | 34.7 | 4.1 | 32.8 | 0.9 | dose-dependently decreased | 36.7 | 13.2 | 37.1 | 7.5 | 8 | 8 | 7 | 10 | survived the whole 5-day period | did not exhibit any obvious toxic signs | 6/6 | 6/6 | 6/6 | 6/6 | 6/6 | 3H-thymidine in cyclolignan-treated lymphocytes (% of 3H-thymidine in control lymphocytes) (human T lymphocytes; AD (Alzheimer's disease) patients): 9%; Proliferation of peripheral blood T lymphocytes, in words (human T lymphocytes): suppressed; ANNEXIN V, percent of total cells ([1]; 0.1 μM): 1.3%; PI ANNEXIN V, percent of total cells ([1]; 0.1 μM): 9.2%; PI, percent of total cells ([1]; 0.1 μM): 0%; ANNEXIN V, percent of total cells ([1]; 2.5 μM): 1.5%; PI ANNEXIN V, percent of total cells ([1]; 2.5 μM): 9.3%; PI, percent of total cells ([1]; 2.5 μM): 0% |
| COc1cc([C@@H]2c3cc4c(cc3C[C@H]3COC(=O)[C@@H]32)OCO4)cc(OC)c1OC [Deoxypodophyllotoxin, reference compound] | – | – | – | – | – | – | – | – | – | – | – | – | – | after 3 days they were all dead | serious toxic signs on the second day | 6/6 | 4/6 | 0/6 | 0/6 | 0/6 | – |
| COc1cc([C@@H]2c3cc4c(cc3[C@H](O)[C@H]3COC(=O)[C@@H]23)OCO4)cc(OC)c1OC [Picropodophyllin] | 35.0 | 3.2 | 34.8 | 1.8 | dose-dependently decreased | 36.7 | 11.0 | 36.3 | 9.7 | 8 | 10 | 15 | 13 | survived the whole 5-day period | did not exhibit any obvious toxic signs | 6/6 | 6/6 | 6/6 | 6/6 | 6/6 | Lymphocytes in blood (blood lymphocytes [2]; individual mice, listed as PPP, 20 mg/kg): 3e+07 L⁻¹ and 1e+07 L⁻¹ and 0 L⁻¹; Effect on number of blood lymphocytes (in words) (blood lymphocytes [2]; mice): reduced the number of blood lymphocytes; Lymphocytes in blood (blood lymphocytes [3]; individual rats, listed as PPP, 20 mg/kg): 3.16e+09 L⁻¹ and 4.5e+08 L⁻¹ and 4.2e+09 L⁻¹ and 2.8e+09 L⁻¹ and 3.86e+09 L⁻¹; Decrease of blood lymphocytes (blood lymphocytes [3]; rats, versus controls): more than 50%; 3H-thymidine in cyclolignan-treated lymphocytes (% of 3H-thymidine in control lymphocytes) (human T lymphocytes; AD patients): 7%; Proliferation of peripheral blood T lymphocytes, in words (human T lymphocytes): suppressed; ANNEXIN V, percent of total cells ([1]; 0.1 μM): 0.9%; PI ANNEXIN V, percent of total cells ([1]; 0.1 μM): 9.4%; PI, percent of total cells ([1]; 0.1 μM): 0%; ANNEXIN V, percent of total cells ([1]; 2.5 μM): 0.9%; PI ANNEXIN V, percent of total cells ([1]; 2.5 μM): 10.5%; PI, percent of total cells ([1]; 2.5 μM): 0% |
| COc1cc([C@@H]2c3cc4c(cc3[C@H](O)[C@H]3COC(=O)[C@H]23)OCO4)cc(OC)c1OC [Podophyllotoxin, reference compound] | – | – | – | – | – | – | – | – | – | – | – | – | – | on the second day all of the animals were dead | became quickly sick | 2/6 | 0/6 | 0/6 | 0/6 | 0/6 | – |
